# Source: paper PMC8067754, “Active Transport of Hepatotoxic Pyrrolizidine Alkaloids in HepaRG Cells” (International Journal of Molecular Sciences, 2021)
# Target: T1, SLC22A1 (Homo sapiens, UniProt O15245)
# T1 construct: For measuring the uptake of ASP^+ in HepaRG cells incubated with PAs; endogenous in cells; host or cells: differentiated HepaRG cells (human hepatoma)
# T1 sequence (O15245 1-554): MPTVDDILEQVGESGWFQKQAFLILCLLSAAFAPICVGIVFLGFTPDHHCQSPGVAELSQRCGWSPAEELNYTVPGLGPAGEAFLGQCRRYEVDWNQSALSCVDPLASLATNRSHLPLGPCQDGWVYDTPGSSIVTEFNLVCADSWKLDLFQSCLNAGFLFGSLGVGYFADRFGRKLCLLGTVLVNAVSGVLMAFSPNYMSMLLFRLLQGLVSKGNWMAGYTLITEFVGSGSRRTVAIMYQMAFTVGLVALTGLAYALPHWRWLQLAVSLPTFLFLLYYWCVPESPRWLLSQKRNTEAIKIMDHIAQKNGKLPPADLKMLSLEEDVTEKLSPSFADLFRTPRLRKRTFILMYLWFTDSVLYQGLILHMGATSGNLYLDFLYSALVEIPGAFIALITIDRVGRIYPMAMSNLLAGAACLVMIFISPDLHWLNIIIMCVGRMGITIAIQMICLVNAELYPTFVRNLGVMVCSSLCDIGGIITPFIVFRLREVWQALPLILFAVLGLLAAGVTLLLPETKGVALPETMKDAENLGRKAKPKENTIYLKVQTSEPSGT
# Assay: ASP+ (SLC22A1 substrate) uptake measurement in HepaRG cells
# Type: cell-based
# Description: ASP^+ is an organic cationic mitochondrial dye that only fluoresces inside cells so that fluorescence measured in the cell culture medium can be neglected. […] In parallel, cells were incubated with Qu (100 µM) and TEA (3 mM) as mentioned in Section 4.3. After 24 h, cells were incubated with 1 µM ASP^+ in Hanks’ balanced salt solution (HBSS, Sigma-Aldrich, Taufkirchen, Germany) at 37 °C. Fluorescence was measured after 20 min at ASP^+-specific wavelength (λex = 475 nm and λem = 605 nm) on a TecanM200Pro spectrometer (Tecan Group Ltd., Männedorf, Switzerland) according to Ahlin et al., (2008).
compound,measurement,setting,value
"C/C=C1/C[C@@H](C)[C@@](C)(O)C(=O)OCC2=CCN3CC[C@@H](OC1=O)[C@@H]23 [Senecionine, senecionine]","fluorescence [%], MW [%]","1 µM, solv ctrl = 100",90.9095%
same,"fluorescence [%], MW [%]","10 µM, solv ctrl = 100",39.1097%
same,"fluorescence [%], MW [%]","50 µM, solv ctrl = 100",27.2215%
same,"fluorescence [%], MW [%]","100 µM, solv ctrl = 100",21.3927%
same,"fluorescence [%], MW [%]","250 µM, solv ctrl = 100",20.0876%
same,interaction with SLC22A1,HepaRG,both inhibitors and substrates
same,minimum concentration inhibiting uptake of the SLC22A1-specific substrate ASP+,"HepaRG, 24 h",10 µM
same,remaining activity at 1 µM,"HepaRG, 24 h, 1 µM, solv ctrl = 100, read-out: fluorescence [%], single replicates (repl.)",82%
